# Assays:
# [1] = test system: bioavailable intracellular iron; assay: IRE-controlled luciferase reporter in 293T cells; assay type: cell-based, human; conditions: 12 hr
# Experimental: 293T cells (10^5 cells/well of 12-well microplates) were seeded and transfected 20 hr later with a firefly luciferase (Luc)-expressing reporter plasmid and corresponding Renilla luciferase (Ren)-expressing reference plasmid using TransFectin™ (Bio-Rad, Hercules, Calif.). The bioavailable intracellular iron concentration was monitored using plasmids obtained from B. Galy and M. W. Hentze (EMBL, Heidelberg). Plasmid pcFIF-Luc contains the mouse ferritin H 5′-UTR with an iron response element (IRE) controlling Luc; pcFIRo-Ren is a similar construct expressing a mutated non-functional IRE fused to Ren. The activity of the HIV-1 promoter was monitored using the pNL4-3-Luc E molecular clone (Chen et al. (1994) J Virol 68: 654-660.), based on the recombinant infectious proviral clone that contains DNA from HIV isolates NY5 (5′ half) and IIIB (3′ half). This plasmid, obtained from D. Baltimore (Caltech, Pasadena), contains the Luc gene in place of 102 nucleotides from nef and 6 nucleotides from env. pCMV-Ren (Promega, Madison, Wis.) was used as reference for pNL4-3-Luc E. Compounds were added at the time of transfection. Cells were harvested 12 hr later, washed with phosphate-buffered saline, and lysed for the dual luciferase assay (Dual Luciferase™ Reporter Assay System; Promega, Madison, Wis.). Luc data were normalized to the Ren internal controls (Hogue et al. (2009) Retrovirology 6: 90.).
# Both CPX and DEF are hydroxypyridinones with vicinally positioned oxygen atoms that mediate bidentate interaction with metal ions, in particular Fe^3+ (FIG. 11A). To evaluate the effect of drugs on the intracellular iron pool and on HIV-1 gene expression, transient expression assays in human 293T cells were exploited. Bioavailable intracellular iron was measured using a construct in which an iron-responsive element (IRE) controls luciferase expression, and HIV-specific transcription was assayed in parallel using an HIV-1 molecular clone that expresses luciferase reporter under the direction of the retroviral promoter. CPX and DEF were compared with the medicinal chelator deferoxamine (DFOX) and with the CPX fragment Agent P2, which consists of the metal-binding 1,2-HOPO domain of CPX but lacks the cyclohexyl moiety (FIG. 11A).
# HIV-1 = assay: Acute PBMC infection model: p24 and HIV-1 RNA in supernatant; assay type: cell-based; conditions: for p24 in culture (virus production, p24 capture assay): HIV-infected PBMCs co-cultured with uninfected PBMCs, CPX 30 μM, DEF 250 μM, P2 30 μM added at 48 hr, followed to 144 hr; for HIV-1 RNA production / p24 production: isolate #990,135, compound added at 48 hr, 30 or 60 μM
# Experimental: Using an institutional review board (IRB)-approved protocol, PBMCs were isolated from the blood of healthy donors and stimulated overnight with phytohemagglutinin (PHA) and human IL-2. Stimulated cells were pelleted and resuspended for culture at a final concentration of 0.5×10^6 cells/ml in PHA-free RPMI 1640 medium containing 10% fetal calf serum (v/v), 100 units/ml penicillin G, 100 μg/ml streptomycin, 2 mM […], and 3.5 ng/ml human IL-2 (Medium B). Cultures were incubated at 37° C., 5% CO2, and 95% humidity.
# Using an IRB-approved protocol, two donors were recruited to generate clinical viral isolates. One (#990,135) was highly immunocompromised despite on-going combination antiretroviral therapy (cART) (CD4 count <5%; HIV RNA in plasma at log10 5.5 copies/ml). The second (#990,010) was moderately to severely immunocompromised on cART (CD4 count 14-26%; HIV RNA in plasma at log10 3.8-5.0 copies/ml). For infection, 5×10^6 uninfected stimulated PBMCs were co-cultured with 10×10^6 PBMCs from one of the HIV-infected donors in Medium B. On day 3, half of the supernatant was removed and replenished with an equal volume of fresh Medium B. On day 7, the medium was likewise replenished and 7.5×10^6 stimulated uninfected PBMCs were added. On days 10, 17, and 24, half of the supernatant was replenished. On days 14, 21, and 28, stimulated uninfected PBMCs were added. Cells were harvested when p24 reached 250 pg/ml, cryopreserved in freezing medium (90% fetal calf serum, 10% dimethyl sulfoxide), and stored in liquid nitrogen as infected PBMC stock. Cell-free supernatants were stored at −80° C.
# Uninfected PBMCs were co-incubated with infected PBMC stock in 24-well microplates at 2 ml/well Medium B, at a 10:1 ratio of uninfected-to-infected cells, and a total cell number of 1×10^6. Cultures were maintained and assayed for 6 consecutive days. […] Leaving the cell layer undisturbed, half the medium in each well was replenished every day, with concurrent adjustment of compound concentration. On each day during the 6-day experiments, a set of wells was harvested: the cells were processed for determination of viability and apoptosis, and the cell-free supernatants were stored at −80° C. for p24 and viral RNA measurements. Experiments were performed at least in duplicate and repeated at least twice.
# p24 core antigen in the supernatant was quantified by ELISA (Retrotek HIV-1 p24™; ZeptoMetrix Corp.; Buffalo, N.Y.). HIV-1 RNA copy number in the supernatant was determined with a PCR-based and FDA-approved assay (Amplicor HIV-1 Monitor™; Roche Diagnostics Corp.; Indianapolis, Ind.). IFN-γ and IL-10 in the supernatant were determined by cytometric bead array (Human Th1/Th2 Cytokine Kit II™; BD Biosciences Pharmingen, San Jose, Calif.).
# To examine the effect of CPX and DEF on HIV-1 propagation, uninfected PBMCs from healthy donors were co-cultured with HIV-infected PBMCs and virus production was monitored by the p24 capture assay. In untreated cultures, p24 was first detected at 96 hr and increased up to 144 hr (FIG. 1C; Control). […] The profound inhibition is due, at least in part, to activation of apoptosis at later stages of infection. These concentrations are within the clinically relevant range and sufficient to block DOHH activity and eIF5A modification (see below).
# To examine the antiretroviral action of CPX in a clinic-derived model, PBMCs infected with patient isolates of HIV-1 were used. Naïve freshly isolated PBMCs from a single donor were infected by co-cultivation with HIV-infected, HLA-nonidentical PBMCs at an initial uninfected/infected cell ratio of 10:1. CPX was added and cells were maintained and monitored for six days. Half of each culture supernatant was replenished daily with CPX-containing or CPX-free medium as appropriate. […]
# [2] = isolate #990,010, CPX 30 μM added 12 hr after inoculation, six days
Structure (SMILES),reduction of intracellular iron (IRE-dependent luciferase) [1],"p24 in culture (virus production, p24 capture assay) (HIV-1)",HIV-1 p24 (HIV-1; [2]),extracellular HIV-1 RNA (HIV-1; [2]),HIV-1 RNA production (HIV-1),p24 production (HIV-1),reduction of intracellular iron (IRE-dependent luciferase) ([1]; DFOX 15 μM)
"Cc1cc(C2CCCCC2)n(O)c(=O)c1 [CPX, 6-cyclohexyl-1-hydroxy-4-methylpyridin-2[1H]-one]",80%,reduced p24 to baseline levels,remained undetectable,did not increase at any time over the initial infectious dose,inhibited the production of HIV-1 RNA,completely inhibited p24 production,
"Cc1ccn(O)c(=O)c1 [Agent P2, 1-hydroxy-4-methylpyridin-2[1H]-one]",,did not impede p24 production,,,did not curtail the accumulation of p24 or HIV-1 RNA,did not curtail the accumulation of p24 or HIV-1 RNA,no effect on either IRE-dependent or HIV-encoded luciferase expression
"Cc1c(O)c(=O)ccn1C [DEF, 3-hydroxy-1,2-dimethylpyridin-4(1H)-one]",~60%,reduced p24 to baseline levels,,,,,

# Source: patent US20120225093A1, “Abrogating HIV-1 Infection via Drug-Induced Reactivation of Apoptosis” (UNIVERSITY OF MEDICINE AND DENTISTRY OF NEW JERSEY, priority 2010, published 2012)
